Measurements taken from publication PMC11414412, “Design and synthesis new indole-based aromatase/iNOS inhibitors with apoptotic antiproliferative activity” (Frontiers in Chemistry, 2024).

Assays:
HT-29 cells = experiment: Antiproliferative assay, HT-29; assay type: cell-based; conditions: Homo sapiens; HT-29 colon cancer cell line; read-out: Antiproliferative activity IC50 ± SEM, HT-29
Protocol: (§1) 4.2.2. Assay for antiproliferative effect
(§2) To explore the antiproliferative potential of compounds propidium iodide fluorescence assay was performed using different cell lines such as Panc-1 (pancreas cancer cell line), MCF-7 (breast cancer cell line), HT-29 (colon cancer cell line) and A-549 (epithelial cancer cell line), respectively. To calculate the total nuclear DNA, a fluorescent dye (propidium iodide, PI) is used which can attach to the DNA, thus offering a quick and precise technique. PI cannot pass through the cell membrane and its signal intensity can be considered as directly proportional to quantity of cellular DNA. Cells whose cell membranes are damaged or have changed permeability are counted as dead ones. The assay was performed by seeding the cells of different cell lines at a density of 3000-7500 cells/well (in200μl medium) in culture plates followed by incubation for 24h at 37 °C in humidified 5%CO2/95% air atmospheric conditions. The medium was removed; the compounds were added to the plates at 10 μM concentrations (in 0.1% DMSO) in triplicates, followed by incubation for 48h. DMSO (0.1%) was used as control. After incubation, medium was removed followed by the addition of PI (25 μl, 50μg/mL in water/medium) to each well of the plates. At - 80 °C, the plates were allowed to freeze for 24 h, followed by thawing at 25 °C. A fluorometer (Polar-Star BMG Tech) was used to record the readings at excitation and emission wavelengths of 530 and 620 nm for each well. The percentage cytotoxicity of compounds was calculated using […]
(§3) Where ATC= Absorbance of treated cells and AC= Absorbance of control. Erlotinib was used as positive control in the assay.

A-549 cells = experiment: Antiproliferative assay, A-549; assay type: cell-based; conditions: Homo sapiens, A549; A-549 lung cancer cell line; read-out: Antiproliferative activity IC50 ± SEM, A-549
Protocol: as §1, §2, §3

iNOS = target: T1, iNOS (Homo sapiens, UniProt P35228); experiment: NOS inhibition assay (L-citrulline, fluorometric detection), iNOS; assay type: biochemical; conditions: for inhibition at 1 µM: compound at 1 µM; for eNOS/iNOS selectivity: ratio of eNOS IC50 to iNOS IC50
T1 construct: purchased Enzo Life Sciences, Inc. (New York, USA)
Protocol: (§4) The investigated compounds were tested at 1 µM against the iNOS and 10 µM against the eNOS to determine their isoform selectivity. Because of its critical role in cardiovasculature, inhibiting the constitutive enzyme eNOS should be avoided.
(§5) Refer to Supplementary Appendix SA1 for more details.
(§6) 4.2.4. NOS inhibition assay
(§7) Recombinant human iNOS was purchased from Enzo Life Sciences, Inc. (New York, USA).
(§8) Recombinant bovine eNOS was purchased from Cayman Chemical (Ann Arbor, USA). To measure iNOS activity, 10 μL of enzyme stock solution were added to 80 μL of 2-[4-(2-hydroxyethyl) piperazin-1-yl]ethanesulfonic acid (HEPES) buffer pH = 7.4, 100 mM, containing 0.1 mM CaCl2, 1 mM D,L-dithiothreitol (DTT), 0.5 mg/mL BSA, 10 μM flavin mononucleotide (FMN), 10 μM flavin adenine dinucleotide (FAD), 30 μM tetrahydrobiopterin (BH4), 10 μg/mL calmodulin (CaM), 10 μM L-Arg. For the eNOS activity evaluation, 25 μL of the enzyme stock solution were added to 65 μL of HEPES buffer containing 2 mM CaCl2 and the same cofactors […]
(§9) μM) were added to the enzyme assay solution, followed by pre -incubation of 15 min at 37 ◦C.
(§10) Each reaction was initiated by the addition of 10 μL of NADPH 7.5 mM, carried out at 37 ◦C for 30 min, and stopped by adding 500 μL of ice -cold CH3CN. The mixture was brought to dryness under vacuum and eventually stored at – 20 ◦C, before the HPLC analysis. […]

eNOS = target: T2, eNOS (Bos taurus, UniProt P29473); experiment: NOS inhibition assay (L-citrulline, fluorometric detection), eNOS; assay type: biochemical, bovine; conditions: for inhibition at 10 µM / Inhibition (%) eNOS: compound at 10 µM
T2 construct: purchased Cayman Chemical (Ann Arbor, USA)
Protocol: as §4, §5, §6, §7, §8, §9, §10

MCF-10A cells = experiment: Cell viability assay (MTT) on normal mammary epithelial cells; assay type: cell-based, human; conditions: MCF-10A normal cells, 50 µM, 4 days incubation
Protocol: This test investigates the effects of the new compounds 3–16 on normal cell lines to determine their safety. The normal human mammary gland epithelial (MCF-10 A) cell line was used to test the viability of the tested compounds. After 4 days of incubation on MCF-10 A cells within 50 µM of each investigated compound, cell viability was determined using the MTT assay ([Gomaa et al., 2020]; [Marzouk et al., 2020]).
The normal human mammary gland epithelial (MCF-10A) cell line was used to test the viability of the tested compounds. After 4 days of incubation on MCF-10A cells within 50 µM of each investigated compound, cell viability was determined using the MTT assay ([Gomaa et al., 2020]; [Marzouk et al., 2020]). Refer to Supplementary Appendix SA1 (supp. File) for more details.
4.2. Biological evaluation
4.2.1 Cell Viability assay (MTT assay)
MTT assay was performed to investigate the effect of the synthesized compounds on mammary epithelial cells (MCF-10A). The cells were propagated in medium consisting of Ham's F-12 medium/ Dulbecco's modified Eagle's medium (DMEM) (1:1) supplemented with 10% foetal calf serum, 2 mM glutamine, insulin (10 μg/mL), hydrocortisone (500 ng/mL) and epidermal growth factor (20 ng/mL). Trypsin ethylenediamine tetra acetic acid (EDTA) was used to passage the cells after every 2-3 days. 96-well flat-bottomed cell culture plates were used to seed the cells at a density of 10^4 cells mL-1. The medium was aspirated from all the wells of culture plates after 24 h followed by the addition of synthesized compounds (in 200 μL medium to yield a final concentration of 0.1% (v/v) dimethyl sulfoxide) into individual wells of the plates. Four wells were designated to a single compound. The plates were allowed to incubate at 37°C for 96 h. Afterwards, the medium was aspirated and 3-[4,5-dimethylthiazol-2-yl]-2,5-diphenyltetrazolium bromide (MTT) (0.4 mg/mL) in medium was added to each well and subsequently incubated for 3 h. The medium was aspirated and 150 μL dimethyl sulfoxide (DMSO) was added to each well. The plates were vortexed followed by the measurement of absorbance at 540 nm on a microplate reader. The results were presented as inhibition (%) of proliferation in contrast to controls comprising 0.1%

IC50 (HT-29 cells) [nM] | IC50 (A-549 cells) [nM] | inhibition at 1 µM (iNOS) [%] | inhibition at 10 µM (eNOS) [%] | Inhibition (%) eNOS (eNOS) | IC50 (iNOS) [nM] | eNOS/iNOS selectivity (iNOS) | IC50 (eNOS) [nM] | IC50 eNOS (eNOS) | Compound | Cell viability % (MCF-10A cells)
32 ± 3 | 31 ± 3 | 62 ± 2 | 49 ± 2 | – | – | – | – | – | CCc1c2cc(Cl)ccc2n2c(C)c(C(=O)OCc3ccccc3)[nH]c(=O)c12 [Compound 5, benzyl 8-chloro-10-ethyl-4-methyl-1-oxo-1,2-dihydropyrazino [1,2-a]indole-3-carboxylate] | –
29 ± 2 | 28 ± 2 | 73 ± 2 | 32 ± 2 | moderate inhibitory action | – | – | – | – | CCc1c2cc(Cl)ccc2n2c(C)c(C(=O)NCc3ccccc3)[nH]c(=O)c12 [Compound 7, N-benzyl-8-chloro-10-ethyl-4-methyl-1-oxo-1,2-dihydropyrazino [1,2-a]indole-3-carboxamide] | –
25 ± 2 | 23 ± 2 | 87 ± 3 | – | completely inactive | 75 ± 2 | >670 | > 50000 | – | CCc1c2cc(Cl)ccc2n2cc(Cc3ccccc3)n(C)c(=O)c12 [Compound 12, 3-Benzyl-8-chloro-10-ethyl-2-methylpyrazino[1,2-a]indol-1(2H)-one] | no effect
25 ± 2 | 25 ± 2 | 81 ± 3 | – | completely inactive | 98 ± 3 | >510 | > 50000 | inactive | CCc1c2cc(Cl)ccc2n2cc(-c3ccccc3)[nH]c(=O)c12 [Compound 16, 8-Chloro-10-ethyl-3-phenylpyrazino [1,2-a]indol-1(2H)-one] | no effect
